Assay results as given in patent US12508302B2, “Pharmaceutical composition providing mucolytic effect” (FRIMLINE PRIVATE LIMITED, priority 2022, dated 2025).

Test system: tracheobronchial secretion in rats
Assay: Mucolytic activity in rats: tracheobronchial secretion of fluorescein sodium (FINa)
Type: in vivo, rat (Swiss Albino Rats)
Details: for Fluorescein Sodium (FINa) Secretion: dosed 30 minutes before i.v. FINa 300 mg/kg, tracheobronchial lavage one hour after administration, doses as Table 1, mean±SEM; for Percentage (%) Enhancement of FINa secretion compared to Normal: versus normal group (G1)
Experimental: The effect of the compositions of the present invention was studied in animals. For this study, screening effect of synergistic combination of compositions/formulations comprising N-Acetyl-L-Cysteine, Lactoferrin and additional active ingredients for mucolytic activity in rat was performed. The following trials were carried out:
Eighty-Four (84) rats including male and female (Swiss Albino Rats) divided into 14 groups (6 per group) were maintained in animal house in a light/dark atmosphere based on a 12 hour cycle having temperature and relative humidity in the range of 19 to 25±2° C. and 30-70%, respectively. To maintain the appropriate conditions, temperature and relative humidity were recorded three times daily. All animals were acclimatized for a minimum period of five days. Animals were maintained in the test setup for minimum 30 minutes once during the acclimatization period to reduce the stress. Animals were weighed on the day of receipt and observed daily for abnormalities if any. Detailed records of acclimatization were also maintained. Rats were housed 3 per cage in clean, sterilized Polypropylene cages. During complete experiments, animals were supplied with the standard certified rat pellet feed and drinking water treated by reverse osmosis ad libitum.
In order to evaluate the mucolytic activity in rats, eighty-four (84) rats were screened and divided into Fourteen (14) groups. For a comparative analysis, groups were divided and treated as below:
Tracheobronchial secretion in rats, expressed by the amount of fluorescein sodium (FINa) dye excreted into the respiratory tract, was measured by modification of methods published earlier.
Lactoferrin, Carotenoid, N-Acetyl-L-Cysteine or their combinations (G4-G14) were suspended in 1% Acacia. Acetylcholine (G2) and Bromhexine (G3) were dissolved in distilled water. The said active ingredients were administered orally (1 ml/100 g body weight) 30 minutes before intravenous injection of FINa (300 mg/kg, 0.1 ml/100 g body weight) in fasted rats.
One hour after administration, all rats were sacrificed with CO2 exposure; an incision was made, and the trachea was immediately exposed. An infant feeding tube was gently inserted into the trachea (about 30 mm deep). Five milliliters of 5% NaHCO3 solution (˜37° C.) was injected into the respiratory tract and immediately aspirated while gently massaging the thoracic area.
The tracheobronchial lavage fluid (4.9±0.1 ml) was centrifuged (3500 rpm for 10 minutes) and the supernatant was transferred to STP B & L tubes. The fluorescence intensity of the supernatant was measured with a Genesys 20 spectrophotometer set at a wavelength of 510 nm (emission).

Row | Compound | Fluorescein Sodium (FINa) Secretion | Percentage (%) Enhancement of FINa secretion compared to Normal (doses as Table 1) | Percentage (%) Enhancement of FINa secretion compared to Normal (doses as Table 1, listed as diseased group) | Percentage (%) Enhancement of FINa secretion compared to Normal (doses as Table 1, listed as N-Acetyl-L-Cysteine) | Percentage (%) Enhancement of FINa secretion compared to Normal (doses as Table 1, listed as positive control)
1 | CC(=O)OCC[N+](C)(C)C [Diseased Control, Acetylcholine] | 0.37 ± 0.12 μg/100 g/h | −74.13 ± 6.4 ^ % | −74.13% |  | 
2 | CC(=O)N[C@@H](CS)C(=O)O [NAC, N-Acetyl-L-Cysteine] | 1.99 ± 0.08 μg/100 g/h | 39.16 ± 5.1% |  | 39.16% | 
3 | CN(Cc1cc(Br)cc(Br)c1N)C1CCCCC1 [Positive Control, Bromhexine] | 2.64 ± 0.18 μg/100 g/h | 84.62 ± 6.1% |  |  | 84.62%
